In US9489013B2, “C6-azaspiro iminothiadiazine dioxides as bace inhibitors, compositions, and their use” (Merck Sharp & Dohme Corp., priority 2012, dated 2016):
Read-outs that look alike come from different tables or passages of the source.

Key:
[1] = biological target: purified human autoBACE-2 (Homo sapiens (Human), UniProt Q9Y5Z0); assay: BACE-2 Assay (BACE-HTRF assay); assay type: biochemical; details: Ki calculated from IC50 using the Cheng-Prusoff equation, pH 5.0, read-out: BACE2 Ki
Method: Inhibitor IC50's at purified human autoBACE-2 are determined in a time-resolved endpoint proteolysis assay that measures hydrolysis of the QSY7-[…]-Eu-amide FRET peptide substrate (BACE-HTRF assay). […] Inhibitor compounds, prepared at 3× the desired final concentration in 1×BACE assay buffer (20 mM sodium acetate pH 5.0, 10% glycerol, 0.1% Brij-35) supplemented with 7.5% DMSO are pre-incubated with an equal volume of autoBACE-2 enzyme diluted in 1×BACE assay buffer (final enzyme concentration 1 nM) in black 384-well NUNC plates for 30 minutes at 30° C. […] DMSO is present at 5% final concentration in the assay. Following laser excitation of sample wells at 320 nm, the fluorescence signal at 620 nm is collected for 400 ms following a 50 μs delay on a RUBYstar HTRF plate reader (BMG Labtechnologies). Raw RFU data is normalized to maximum (1.0 nM BACE/DMSO) and minimum (no enzyme/DMSO) RFU values. […] The Ki values are calculated from the IC50 using the Cheng-Prusoff equation.

[2] = biological target: soluble human BACE1 catalytic domain (Homo sapiens (Human), UniProt P56817); assay: BACE1 HTRF FRET Assay; assay type: biochemical; details: Ki calculated from IC50 using the Cheng-Prusoff equation; QSY7-APPswe-Eu substrate, pH 5.0
soluble human BACE1 catalytic domain, sequence (P56817 75-416): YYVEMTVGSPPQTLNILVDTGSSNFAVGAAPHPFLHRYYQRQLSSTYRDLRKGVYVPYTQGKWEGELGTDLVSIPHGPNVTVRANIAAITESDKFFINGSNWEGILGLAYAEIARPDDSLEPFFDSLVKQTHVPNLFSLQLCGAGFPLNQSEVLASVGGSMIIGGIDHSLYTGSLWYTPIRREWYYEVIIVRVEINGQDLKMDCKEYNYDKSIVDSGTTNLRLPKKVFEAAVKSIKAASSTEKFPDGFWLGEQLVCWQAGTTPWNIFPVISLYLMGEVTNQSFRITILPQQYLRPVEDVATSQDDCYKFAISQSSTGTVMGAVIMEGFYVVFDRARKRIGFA
Method: A homogeneous time-resolved FRET assay can be used to determine IC50 values for inhibitors of the soluble human BACE1 catalytic domain. […] This substrate contains an N-terminal QSY7 moiety that serves as a quencher of the C-terminal Europium fluorophore (620 nm Em). […] Inhibition of BACE cleavage of the QSY7-APP^swe-Eu substrate by inhibitors is manifested as a suppression of 620 nm fluorescence. […] The reactions are incubated at 30° C. for 1.5 hours. The 620 nm fluorescence is then read on a Rubystar HTRF plate reader (BMG Labtechnologies) using a 50 millisecond delay followed by a 400 millisecond acquisition time window. Inhibitor IC50 values are derived from non-linear regression analysis of concentration response curves.

[3] = QSY7-EISEVNLDAEFC-Eu-amide substrate

purified human autoBACE-2, sequence (Q9Y5Z0 63-473 limits assumed): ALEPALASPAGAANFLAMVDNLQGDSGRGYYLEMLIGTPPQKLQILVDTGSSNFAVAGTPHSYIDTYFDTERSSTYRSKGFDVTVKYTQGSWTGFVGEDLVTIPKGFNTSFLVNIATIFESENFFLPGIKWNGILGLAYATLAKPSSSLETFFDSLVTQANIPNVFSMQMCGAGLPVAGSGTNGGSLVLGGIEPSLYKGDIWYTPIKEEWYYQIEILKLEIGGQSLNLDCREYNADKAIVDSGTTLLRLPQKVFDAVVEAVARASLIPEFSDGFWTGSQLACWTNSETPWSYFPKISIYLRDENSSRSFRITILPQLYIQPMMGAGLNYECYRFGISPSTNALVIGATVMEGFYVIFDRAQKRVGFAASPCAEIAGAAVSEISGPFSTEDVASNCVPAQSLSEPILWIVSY

Compound | Ki [1, 3] [nM] | Ki [2] [nM] | Ki ([1]; QSY7-[…]-Eu-amide substrate) [nM]
CN1C(=N)N[C@](C)(c2cc(NC(=O)c3ccc(F)cn3)ccc2F)[C@]2(CCN(Cc3cscn3)C2)S1(=O)=O [Example 33] | 5 | 3 | –
CN1C(=N)N[C@](C)(c2cc(NC(=O)c3ccc(F)cn3)ccc2F)[C@]2(CCN(CC3CC3)C2)S1(=O)=O [Example 31] | 5 | 2 | –
COc1ccc(C(=O)Nc2ccc(F)c([C@@]3(C)NC(=N)N(C)S(=O)(=O)[C@@]34CCN(CC3CC(OC)C3)C4)c2)nc1 (stereo partly shown) [Example 17] | – | 4 | –
CN1C(=N)N[C@](C)(c2cc(NC(=O)c3ccc(F)cn3)ccc2F)[C@]2(CCN(Cc3cnco3)C2)S1(=O)=O [Example 30] | 5 | 4 | –
COc1ccc(C(=O)Nc2ccc(F)c([C@@]3(C)NC(=N)N(C)S(=O)(=O)[C@@]34CCN(CC3CCOC3)C4)c2)nc1 (stereo partly shown) [Example 9] | 2 | 1 | –
CN1C(=N)N[C@](C)(c2cc(NC(=O)c3ccc(F)cn3)ccc2F)[C@@]2(CCN(S(=O)(=O)c3ccccc3)C2)S1(=O)=O [Example 91] | 6 | 16 | –
COC1CC(CN2CC[C@@]3(C2)[C@@](C)(c2cc(NC(=O)c4ccc(F)cn4)ccc2F)NC(=N)N(C)S3(=O)=O)C1 (stereo partly shown) [Example 34] | 10 | 6 | –
CN1C(=N)N[C@](C)(c2cc(NC(=O)c3ccc(F)cn3)ccc2F)[C@]2(CCN(S(=O)(=O)CC3CCCO3)C2)S1(=O)=O (stereo partly shown) [Example 82] | 10 | 4 | –
CN1C(=N)N[C@](C)(c2cc(NC(=O)c3ccc(F)cn3)ccc2F)[C@]2(CCN(Cc3cnn(C)c3)C2)S1(=O)=O [Example 40] | 10 | 4 | –
COc1ccc(C(=O)Nc2ccc(F)c([C@@]3(C)NC(=N)N(C)S(=O)(=O)[C@@]34CCN(Cc3cnco3)C4)c2)nc1 [Example 14] | 9 | 3 | –
CN1C(=N)N[C@](C)(c2cc(NC(=O)c3ccc(F)cn3)ccc2F)[C@]2(CCN(Cc3cccnc3)C2)S1(=O)=O [Example 35] | 6 | 2 | –
COc1ccc(C(=O)Nc2ccc(F)c([C@@]3(C)NC(=N)N(C)S(=O)(=O)[C@@]34CCN(Cc3cnn(C)c3)C4)c2)nc1 [Example 16] | – | 4 | –
CN1C(=N)N[C@](C)(c2cc(NC(=O)c3ccc(F)cn3)ccc2F)[C@]2(CCN(Cc3cocn3)C2)S1(=O)=O [Example 37] | 5 | 2 | –
COc1ccc(C(=O)Nc2ccc(F)c([C@@]3(C)NC(=N)N(C)S(=O)(=O)[C@@]34CCN(Cc3cncnc3)C4)c2)nc1 [Example 15] | 17 | 4 | –
COc1ccc(C(=O)Nc2ccc(F)c([C@@]3(C)NC(=N)N(C)S(=O)(=O)[C@@]34CCN(Cc3ccccn3)C4)c2)nc1 [Example 10] | – | 2 | –
COc1ccc(C(=O)Nc2ccc(F)c([C@@]3(C)NC(=N)N(C)S(=O)(=O)[C@@]34CCN(Cc3cccnc3)C4)c2)nc1 [Example 11] | 12 | 2 | –
CN1C(=N)N[C@](C)(c2cc(NC(=O)c3ccc(F)cn3)ccc2F)[C@]2(CCN(Cc3cncnc3)C2)S1(=O)=O [Example 38] | 7 | 4 | –
CCCCN1CC[C@@]2(C1)[C@@](C)(c1cc(NC(=O)c3ccc(F)cn3)ccc1F)NC(=N)N(C)S2(=O)=O [Example 39] | 3 | 2 | –
COCC(=O)Nc1ccc(F)c([C@@]2(C)NC(=N)N(C)S(=O)(=O)[C@@]23CCN(Cc2ccccc2)C3)c1 [Example 96] | – | 22 | 25
CN1C(=N)N[C@](C)(c2cc(NC(=O)c3ccc(F)cn3)ccc2F)[C@]2(CCN(Cc3ccncc3)C2)S1(=O)=O [Example 29] | 9 | 8 | –
COc1ccc(C(=O)Nc2ccc(F)c([C@@]3(C)NC(=N)N(C)S(=O)(=O)[C@@]34CCN(CC3CC3)C4)c2)nc1 [Example 12] | 7 | 2 | –
COc1ccc(C(=O)Nc2ccc(F)c([C@@]3(C)NC(=N)N(C)S(=O)(=O)[C@@]34CCN(Cc3cscn3)C4)c2)nc1 [Example 8] | – | 3 | –
